Laboratory results as given in patent US5214036A, “Benzoporphyrin derivatives for photodynamic therapy” (University of British Columbia, priority 1990, dated 1993).

How the values were obtained:
HDL = assay: Step density gradient of BPD added to isolated lipoprotein fraction; format: in vitro ADME, human; conditions: added to lipoprotein fraction after separation of albumin, % of total added
Description: (§1) (b) Determining BPD Plasma Distribution. Experiments were performed to determine the association of BPDs with plasma protein and lipoprotein fractions. When density ultracentrifugation was used for the analysis, 2 ml samples of human plasma were incubated for 18 hours at 4° C. in the presence of 100 μg of ^3 H-BPD-MA. The BPD-plasma solution was then adjusted to a density of 1.21 g/ml by the addition of solid KBr. A step gradient was prepared using stock KBr density solutions at 1.006, 1.019, and 1.063 g/ml, layered manually into the bottom of centrifuge tubes using a glass syringe and a narrow bore needle. The BPD-plasma solution was then layered into the bottom of the tube. Separation of the plasma proteins was accomplished by centrifugation in a Beckman SW 41 rotor for 24 hours at 40,000 rpm and 15° C. 0.5 ml fractions were collected, and the protein content of each fraction was monitored by measuring absorbance at 280 nm. 100 μl of each fraction was mixed with 5 ml Aquasol (NEN) and counted in a liquid scintillation counter.
(§2) To improve the HDL-albumin resolution, albumin was removed by ultracentrifugation. Plasma was mixed with ^14 C-BPD-MA and incubated for 18 hours at 4° C. The density of the mixture was then adjusted to 1.21 g/ml by the addition of solid KBr, followed by centrifugation at 40,000 rpm for 48 hours. […] The lipoprotein and lipoprotein-depleted fractions were counted for BPD-MA content. 82% of total ^14 C-BPD-MA added was recovered in the plasma lipoprotein fraction and 5% in the lipoprotein deficient fraction.
(§3) When albumin and other serum proteins were separated from the lipoprotein fraction before the addition of ^14 C-BPD-MA, a shift in binding was observed. After step density gradient separation, the majority of BPD-MA was still recovered with HDL (38% of total ^14 C-BPD-MA added); however in this case, the association with LDL and VLDL fractions appeared to be equivalent (17% with LDL and 18% with VLDL) (FIG. 5). […] Polyacrylamide gel electrophoresis of the HDL fractions from these density gradients confirmed that very little albumin was present. […]

LDL = assay: as above; format: in vitro ADME, human; conditions: added to lipoprotein fraction after separation of albumin, % of total added
Description: as §1, §2, §3

VLDL = assay: as above; format: in vitro ADME, human; conditions: added to lipoprotein fraction after separation of albumin, % of total added
Description: as §1, §2, §3

[1] = Absorption spectrum / absorption maximum; format: physicochemical; conditions: FIG. 3
[2] = background; cited from earlier work
[3] = test system: high density lipoproteins (HDLs); conditions: Barel et al.; cited from earlier work

recovered with HDL (HDL) [%] | associated with LDL (LDL) [%] | associated with VLDL (VLDL) [%] | major absorption peak [1] | Structure (SMILES) | additional absorbance [2] | maximum absorbance [2] | affinity for high density lipoproteins [3]
54 | 13 | 20 | about 685 nm | C=Cc1c(C)c2cc3nc(cc4[nH]c(cc5nc(cc1[nH]2)C(C)=C5CCC(=O)O)c(CCC(=O)O)c4C)C1(C)C3=CC=C(C(=O)OC)C1C(=O)OC (stereo not shown) [BPD-DA] | – | – | –
– | – | – | – | CC1=C(CCC(=O)O)c2cc3[nH]c(cc4nc(cc5[nH]c(cc1n2)c(C)c5C(C)O)C(C)=C4C(C)O)c(C)c3CCC(=O)O (stereo not shown) [hematoporphyrin] | around 630 nm | around 400 nm | higher affinity for high density lipoproteins (HDLs)
